Laboratory results: patent US6441023B1 (American Home Products Corporation, priority 1997, dated 2002)

Columns and labels:
Type in all cases: biochemical
MMP 1 = biological target: T1, MMP 1 (Homo sapiens, UniProt P03956); experiment: In vitro collagenase assay (human recombinant fibroblast collagenase); conditions: for IC50: read-out: MMP 1 IC 50
T1 construct: human recombinant fibroblast collagenase (truncated, mw=18,828, WAR, Radnor)
T1 sequence (P03956 100-269 limits assumed): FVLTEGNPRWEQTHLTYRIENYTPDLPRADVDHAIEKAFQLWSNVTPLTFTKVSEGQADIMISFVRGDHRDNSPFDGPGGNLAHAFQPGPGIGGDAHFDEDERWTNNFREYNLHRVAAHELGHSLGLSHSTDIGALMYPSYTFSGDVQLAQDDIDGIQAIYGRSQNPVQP
Description: The assay is based on the cleavage of a peptide substrate ((Dnp-Pro-Cha-Gly-Cys(iNe)-His-Ala-Lys(NMa)-NH2), Peptide International, Inc.) by collag,enase releasing the fluorescent NMa group which is quantitated on the fluorometer. Dnp quenches the NiIa fluorescence in the intact substrate. […] Substrate is dissolved in methanol and stored frozen in 1 mM aliquots. Collagenase is stored frozen in buffer in 25 µM aliquots. For the assay, substrate is dissolved in HCBC buffer to a final concentration of 10 μM and collagenase to a final concentration of 5 nM. Compounds are dissolved in methanol, DMSO, or HCBC. The methanol and DMSO are diluted in HCBC to <1.0%. Compounds are added to the 96 well plate containing enzyme and the reaction is started by the addition of substrate.
The slope of the line is calculated and represents the reaction rate.
The mean (x±sem) of the control rate is calculated and compared for statistical significance (p<0.05) with drug-treated rates using Dunnett's multiple comparison test.

TACE = biological target: T2, TACE (Homo sapiens, UniProt P78536); experiment: Procedure for measuring TACE inhibition; design: TACE % inhibition: dose or concentration left out as unconfirmed; conditions: for IC50: read-out: TACE IC 50
T2 construct: purchased Immunex
Description: Using 96-well black microtiter plates, each well receives a solution composed of 10 μL TACE (Inmunex, final concentration 1 μg/mL), 70 μL Tris buffer, pH 7.4 containing 10% glycerol (final concentration 10 mM), and 10 μL of test compound solution in DMSO ([…], DMSO concentration <1%) and incubated for 10 minutes at room temperature. The reaction is initiated by addition of a fluorescent peptidyl substrate (final concentration 100 μM to each well and then shaking on a shaker for 5 sec.
The reaction is read (excitation 340 nm, emission 420 nm) for 10 min. and the increase in fluorescence over time is plotted as a linear line. The slope of the line is calculated and represents the reaction rate.
The mean (xtsem) of the control rate is calculated and compared for statistical significance (p<0.05) with drug-treated rates using Dunnett's multiple comparison test.

MMP 9 = biological target: T3, MMP 9 (Homo sapiens, UniProt P14780); experiment: In vitro gelatinase assay (human neutrophil gelatinase B); conditions: for IC50: read-out: MMP 9 IC 50
T3 construct: from tissue; host or cells: human neutrophils
Description: The assay is based on the cleavage of the thiopeptide substrate ((Ac-Pro-Leu-Gly(2 mercapto-4 methyl-pentanoyl)-Leu-Gly-OEt), Bachem Bioscience) by the enzyme, gelatinase, releasing the substrate product which reacts calorimetrically with DTNB ((5,5′-dithio-bis(2-nitro-benzoic acid)). The enzyme activity is measured by the rate of the color increase.
The thiopeptide substrate is made up fresh as a 20 mM stock in 100% DMSO and the DTNB is dissolved in 100% DMSO as a 100 mM stock and stored in dark at room temperature. Both the substrate and DTNB are diluted together to 1 mM with substrate buffer (50 mM HEPES pH 7.5, 5 mM CaCl2) before use. The stock of human neutrophil gelatinase B is diluted with assay buffer (50 mnM HEPES pH 7.5, 5 mM CaCl2, 0.02% Brij) to a final concentration of 0.15 mnM.
The increase in OD405 is plotted and the slope of the line is calculated which represents the reaction rate.

MMP 13 = MMP 13 (Homo sapiens, UniProt P45452); experiment: MMP 13 inhibition (manual); conditions: for IC50: read-out: MMP 13 IC 50

T2 sequence (P78536 215-824): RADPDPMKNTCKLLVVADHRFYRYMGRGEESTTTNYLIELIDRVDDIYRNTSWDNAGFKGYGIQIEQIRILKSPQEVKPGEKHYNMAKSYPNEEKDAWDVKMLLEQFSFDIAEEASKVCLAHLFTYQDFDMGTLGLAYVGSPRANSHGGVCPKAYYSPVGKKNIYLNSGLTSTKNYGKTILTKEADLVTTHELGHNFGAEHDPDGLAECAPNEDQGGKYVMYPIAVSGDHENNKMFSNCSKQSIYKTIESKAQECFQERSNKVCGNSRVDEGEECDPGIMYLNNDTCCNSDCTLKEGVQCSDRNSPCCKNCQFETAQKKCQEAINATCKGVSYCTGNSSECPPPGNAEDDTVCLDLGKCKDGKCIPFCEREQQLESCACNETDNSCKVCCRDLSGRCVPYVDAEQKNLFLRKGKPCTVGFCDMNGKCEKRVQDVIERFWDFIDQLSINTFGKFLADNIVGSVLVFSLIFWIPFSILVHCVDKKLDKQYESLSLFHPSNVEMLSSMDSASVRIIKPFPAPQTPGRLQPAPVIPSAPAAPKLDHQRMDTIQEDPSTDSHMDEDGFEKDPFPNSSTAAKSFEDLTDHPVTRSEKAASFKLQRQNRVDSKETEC
T3 sequence (P14780 94-707): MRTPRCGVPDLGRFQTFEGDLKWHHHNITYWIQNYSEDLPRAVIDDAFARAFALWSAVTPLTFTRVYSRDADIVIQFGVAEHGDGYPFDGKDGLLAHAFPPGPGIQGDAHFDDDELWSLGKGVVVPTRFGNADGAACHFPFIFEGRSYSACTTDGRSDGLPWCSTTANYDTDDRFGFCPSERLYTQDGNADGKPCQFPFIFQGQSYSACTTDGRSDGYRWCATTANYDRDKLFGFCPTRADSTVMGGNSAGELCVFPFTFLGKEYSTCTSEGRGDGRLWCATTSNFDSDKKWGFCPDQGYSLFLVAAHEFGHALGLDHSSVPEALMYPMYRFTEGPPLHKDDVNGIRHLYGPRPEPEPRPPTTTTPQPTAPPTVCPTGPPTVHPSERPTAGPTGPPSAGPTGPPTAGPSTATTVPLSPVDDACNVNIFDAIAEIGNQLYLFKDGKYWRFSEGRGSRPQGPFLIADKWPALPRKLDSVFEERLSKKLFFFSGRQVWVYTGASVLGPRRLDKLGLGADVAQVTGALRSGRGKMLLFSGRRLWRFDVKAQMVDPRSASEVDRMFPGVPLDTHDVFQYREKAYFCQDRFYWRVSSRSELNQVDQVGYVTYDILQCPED

TACE % inhibition at 1 micromolar (TACE) [%] | Compound | IC50 (TACE) [nM] | IC50 (MMP 9) [nM] | further results
40.6 | COc1ccc(S(=O)(=O)C(C)(Cc2ccc(OCCCN3CCN(c4cccc(Cl)c4)CC3)cc2)C(=O)NO)cc1 (centres unmarked) [Example 23, 3-(4-{3-[4-(3-Chloro-phenyl)-piperain-1-yl]-propoxy}-phenyl)-N-hydroxy-2-(4-methoxy-benzenesulfonyl)-2-methyl-propionamide] | – | – | –
51.64 | CC#CCC(CC#CC)(C(=O)NO)S(=O)(=O)c1ccc(OC)cc1 [Example 72, 2-(4-Methoxy-benzenesulfonyl)-2-but-2-ynyl-hextynoic acid hydroxyamide] | – | – | –
20.17 | C#CCC(CC#C)(C(=O)NO)S(=O)(=O)c1ccc(OC)cc1 [Example 73, 2-(4-Methoxy-benzenesulfonyl)-2-prop-2-ynyl-pentynoic acid hydroxyamde] | – | – | –
42.21 | CCCCCC#CCC(CC#CCCCCC)(C(=O)NO)S(=O)(=O)c1ccc(OC)cc1 [Example 71, 2-(4-methoxy-benzenesulfonyl)-2-oct-2-ynyl-decffynoic acid hydroxyamide] | – | – | –
20.30 | COc1ccc(S(=O)(=O)C(Cc2ccccc2)C(=O)NO)cc1 (centres unmarked) [Example 9, N-Hydroxy-2-(4-methoxy-benzenesulfonyl)-3-phenyl-propionarmide] | – | – | –
25 | COc1ccc([S+]([O-])C(C)(Cc2ccccc2)C(=O)NO)cc1 (centres unmarked) [Example 5, N-Hydroxy-2-(4-methoxy-benzenesulfmyl)-2-methyl-3-phenyl-propionamide] | – | – | –
25.2 | COc1ccc(S(=O)(=O)C(C)(Cc2cccc(OCCN3CCOCC3)c2)C(=O)NO)cc1 (centres unmarked) [Example 30, N-Hydroxy-2-(4-methoxy-benzenesulfonyl)-2-methyl-3-[3-(2-morpholin-1-yl-ethoxy)-phenyl]-propionamide] | – | – | –
31 | COc1ccc(S(=O)(=O)C(C)(Cc2ccc(OCCN(C(C)C)C(C)C)cc2)C(=O)NO)cc1 (centres unmarked) [Example 20, N-Hydroxy-2-(4-methoxy-benzenesulfonyl)-2-methy-3-[4-(2-N,N-diisopropylamino-ethoxy)-phenyl]-propionamide] | – | – | –

The remaining lines, values behind:

Compound | TACE % inhibition at 1 micromolar (TACE) [%] | IC50 (TACE) [nM] | IC50 (MMP 9) [nM] | further results
CCCCOc1ccc(S(=O)(=O)C2(C(=O)NO)CCN(Cc3cccc(OCCN4CCOCC4)c3)CC2)cc1 [Example 243, 4(4-Butoxy-benzenesulfonyl)-1-[3-(2-morpholinyl-1-ylthoxy)-benzyl]-piperidine-4-carboxylic acid hydroxyamide] | – | 506 | – | IC50 (MMP 1): 2180 nM
COc1ccc(S(=O)(=O)C(CC=C(C)C)(CC=C(C)C)C(=O)NO)cc1 [Example 79, 2-(4-Methoxy-benzenesulfonyl)-5-methyl-2-(3-methyl-but-2-enyl)-hexenoic acid hydroxyamide] | – | 805 | 0.54 | IC50 (MMP 1): 25 nM
5-Methyl-2-(3-methyl-but-2-enyl)-2-(toluene-4-sulfonyl)-hexenoic acid hydroxyamide [Example 42] | – | 36.5 | 50.9 | IC50 (MMP 13): 6.2 nM
O=C(NO)C1(S(=O)(=O)c2ccc(Oc3ccc(Cl)cc3)cc2)CCN(Cc2ccccc2)CC1 [Example 252, 1-Benzyl-4-[4-(4-chloro-phenoxy)-benzenesulfonyl]-piperidine-4-carboxylic acid hydroxyamide] | – | – | 1.1 | IC50 (MMP 1): 801 nM; IC50 (MMP 13): 0.9 nM
CCCCCCC(Sc1cccc(C(=O)NO)c1)C(=O)NO (centres unmarked) [Example 184] | – | – | – | TACE % inhibition (TACE): 24.8%
COc1ccc(S(=O)(=O)C2(C(=O)NO)CCN(Cc3ccc(-c4cccs4)cc3)CC2)cc1 [Example 261, 4-(4-Methoxy-benzenesulfonyl)-1-(thiophen-2-yl-benzyl)-piperidine-4-carboxylic acid hydroxyamide] | – | – | 10.9 | IC50 (MMP 1): 513 nM
2-(4-Fluoro-benzenesulfonyl)-2-but-2-ynyl-hexynoic acid hydroxyamide [Example 78] | 24.58 | – | 560 | IC50 (MMP 13): 34 nM
CN1CCC(C(=O)NO)(S(=O)(=O)c2ccc(Oc3ccc(Cl)cc3)cc2)CC1 [Example 249, 4-[4-(4-chloro-phenoxy)-benzenesulfonyl]1-methyl-piperidine-4-carboxylic acid hydroxyamide] | – | 270 | 2 | IC50 (MMP 13): 1.6 nM
CC(C)CCOc1ccc(S(=O)(=O)C2(C(=O)NO)CCN(Cc3ccccc3)CC2)cc1 [Example 255, 1-Benzyl-4-[4-(3-methyl-butoxy)-benzenesulfonyl]-piperidine-4-carboxylic acid hydroxyamide] | – | 565 | – | IC50 (MMP 13): 1.5 nM
COc1ccc(S(=O)(=O)C2(C(=O)NO)CCN(Cc3ccc(-c4ccccn4)cc3)CC2)cc1 [Example 262, 4-(4-methoxy-benzenesulfonyl)-1-(4-pyridin-2-yl-benzyl)-piperidine-4-carboxylic acid hydroxyamide] | – | 298 | 6.1 | IC50 (MMP 1): 422 nM
CCCCOc1ccc(S(=O)(=O)C2(C(=O)NO)CCN(Cc3cccc(OC)c3)CC2)cc1 [Example 260, 4-(4-butoxy-benzenesulfonyl)-1-(3-methoxy-benzyl)-piperidine-4-carboxylic acid hydroxyamide] | – | 272 | 2.9 | IC50 (MMP 1): 1490 nM
(1-Hydroxycarbamoyl-propane-1 -sulfanyl)-propionic acid hydroxyamide [Example 122] | – | – | – | TACE % inhibition at 1 µM (TACE): 3.1%
1-(Bromo-benzyl)-4-(4-methoxy-benzenesulfonyl)-piperidine-4-carboxylic acid hydroxyamide [Example 90] | – | 71.9 | 10.3 | –
CCCCCCC(C(=O)NO)[S+]([O-])c1cccc(C(=O)NO)c1 (centres unmarked) [Example 188, 3-(1-Hydroxycarbamoyl-heptylsulfmyl)-benzoicacid hydroxyamide] | – | – | – | TACE % inhibition at 1 µM (TACE): 16.2%
Cc1ccc(CN2CCC(C(=O)NO)(S(=O)(=O)c3ccc(OCc4ccc(Cl)cc4)cc3)CC2)cc1 [Example 266, [4-(4-Chloro-benzyloxy)-benzenesulfonyl]-1-(4-methylbenzyl)-piperidine-4-carboxylic acid hydroxamide] | – | 421 | 6 | IC50 (MMP 13): 5.7 nM
COc1ccc(S(=O)(=O)C(CCCCOc2ccccc2)(Cc2cccnc2)C(=O)NO)cc1 (centres unmarked) [Example 68, 2-(4-Methoxy-benzenesulfonyl)-6-phenoxy-2-pyridin-3-yhnethyl-hexanoic acid hydroxyamide] | – | 522 | 29 | IC50 (MMP 13): 27 nM
CCCCOc1ccc(S(=O)(=O)C2(C(=O)NO)CCN(Cc3ccc(OCCN4CCCCC4)cc3)CC2)cc1 [Example 242, 4-(4-Butoxy-benzenesulfonyl)-1-[4-(2-piperidin-1-yl-ethoxy)-benzyl]-piperidine-4-carboxylic acid hydroxyamide] | – | 581 | 2 | IC50 (MMP 1): 1950 nM
COc1ccc(SC(C)(Cc2ccccc2)C(=O)NO)cc1 (centres unmarked) [Example 1, N-Hydroxy-2-(4-methoxy-phenylsulfanyl)-2-methyl-3-phenyl-propionamnide] | 31.62 | – | 560 | IC50 (MMP 13): 193 nM
2-[8-(1-carboxy-ethanesulfonyl)-octane-1-sulfonyl]-propionic acid hydroxyamide [Example 49] | – | – | – | MMP 1 % inhibition at 1 micromolar (MMP 1; 1 micromolar): 10.1%; MMP 9 % inhibition at 1 micromolar (MMP 9; 1 micromolar): 23.7%; MMP 13 % inhibition at 1 micromolar (MMP 13; 1 micromolar): 54.6%
COc1ccc(S(=O)(=O)C2(C(=O)NO)CCN(CCCOc3ccccc3)CC2)cc1 [Example 105, 4-(4-Methoxy-benzenesulfony)-1-(3-phenoxy-propyl)-pipendine-4-carboxyllc acid hydroxyamide] | 50.2 | – | – | –
